{"source": "patent US20210186972A1", "about": "“FORMULATIONS AND METHODS FOR THE PREVENTION AND TREATMENT OF TUMOR METASTASIS AND TUMORIGENESIS” (THE UNITED STATES OF AMERICA, AS REPRESENTED BY THE …, priority 2018, published 2021)", "key": {"PC3M cells [1]": {"system": "PC3M cells", "test": "Cell growth (INCUCYTE confluence), PC3M", "format": "cell-based, human", "text": "The confluence (%) is on the y-axis and the time (in hours) is on the x-axis. The top most line is GM02153-DMSO, the second line from the top is PC3M-DMSO, the third line from the top is GM02153-metarrestin, and the bottom line is PC3M-metarrestin."}, "[2]": {"system": "normal human fibroblast GM02153 cell line", "test": "UBF distribution (nucleolar capping) in normal fibroblasts", "format": "cell-based", "description": "(§1) The nucleolar disruption was reversible within 48 hours upon withdrawal of metarrestin (FIG. 47). Similar disruptions were observed among other treated cell lines, including PANC1 and PC3M cells (FIG. 48), primary tumor, and liver metastatic tissues in the PANC1 xenograft model (FIG. 21, right panels). […] The segregation of the nucleolar compartments observed by EM is believed to correspond to the nucleolar capping structures detected by immunofluorescence of nucleolar proteins (FIGS. 21A-21C, 23, and 50). The coupling of nucleolar segregation with PNC loss was confirmed across several cell lines by immunolabeling with antibodies against the nucleolar Pol I transcription initiation factors, UBF (upstream binding transcription factor) (FIGS. 23 and 50), or Pol I polymerase, RPA194 (FIG. 51). Factors involved in ribosome maturation, such as fibrillarin or NOPP140 (FIGS. 51 and 52) were similarly reorganized. In contrast, UBF distribution was not changed when the normal human fibroblast GM02153 cell line was treated with metarrestin at the same concentration (FIG. 53)."}, "normal mouse hepatocytes": {"system": "normal mouse hepatocytes", "test": "Nucleolar volume by EM in normal liver tissue", "format": "in vivo", "settings": "treated normal mouse hepatocytes", "description": "FIGS. 49A-49C are graphs showing quantitative evaluation of the EM images of FIG. 48.\nas §1"}, "PC3M cells [3]": {"system": "PC3M cells", "test": "24-well Transwell MATRIGEL invasion assay, PC3M", "format": "cell-based, human", "settings": "0.6 μM, within 24 hours", "description": "FIG. 3 is a bar graph showing that metarrestin inhibits MATRIGEL gelatinous protein mixture (BD Biosciences, Franklin Lakes, N.J.) invasion at below micromolar concentrations (0.6 μM) within 24 hours of treatment (* p<0.05 and ** p<0.01 in comparison to DMSO [control]). The invasion (%) is on the y-axis and the metarrestin [microM] is on the x-axis. The cell line PC3M is shown in white bars and the cell line PANC1 (human pancreas) is shown in black bars.\n24-well Transwell Permeable MATRIGEL gelatinous protein mixture Invasion assay: The effect of metarrestin on invasion activity of PANC1 and PC3M cells was measured using 24-well Transwell Permeable MATRIGEL gelatinous protein mixture Invasion Chambers with 8 μm pores (Corning, Cat #354480). Membranes were rehydrated with 500 μL of serum-free DMEM (Thermo Fisher, Cat #11965084) both inside the chamber and inside the well and incubated for two hours at 37° C., 5% CO2. Cells were detached, washed, resuspended in serum-free DMEM, counted, and diluted to a final concentration of 1×10^5 cells/mL in six separate 15 mL conical tubes. […] 750 μL of DMEM plus 10% FBS acting as a chemoattractant were placed in the basal wells. Plates were incubated at 37° C., 5% CO2 for 24 hours. […]"}, "[4]": {"set-up": "species or system NSG PANC1 mice", "settings": "NSG (Nod/IL2gamma null), mouse, in vivo, po, 10 mg/kg, 1 h"}, "GFP-RPL29": {"system": "GFP-RPL29", "test": "Ribosome synthesis, inducible GFP-RPL29 cell line", "format": "cell-based", "settings": "induced after exposure for 5 hours", "description": "FIG. 24 is a panel showing that metarrestin interferes with ribosomal biogenesis. An inducible RPL29-GFP-expressing cell line synthesizes RPL29-GFP when treated with tetracyclin (2nd column). When cells were treated with 1 μM metarrestin before tetracycline induction, the newly synthesized proteins accumulated in the nucleoli and nuclei (right most panels) compared to the DMSO control treated cells (2nd from right panels). Scale bars=5 μm.\nTo examine whether the disruption of the nucleolar structure impacts ribosome synthesis, a cell line expressing inducible GFP-RPL29 (a ribosomal subunit) was used."}, "[5]": {"system": "patient-derived breast cancer xenotransplantation model (PDX)", "test": "Patient-derived breast cancer xenotransplantation model (PDX)", "format": "in vivo", "settings": "25 mg/kg IP, 5-day on and 2-day off, 4 weeks", "description": "Metarrestin was tested in PC3M xenograft mice to determine whether metarrestin's anti-metastasis activity (observed in the NSG PANC1 mice and in vitro pan-cancer PNC suppression) translates into anti-metastasis activity in additional cancer models. Two weeks after subcutaneous implantation of PC3M cells, mice were started on 5 mg/kg or 25 mg/kg metarrestin or vehicle by daily IP injection for 4 additional weeks. Tumor progression was tracked by both in vivo imaging systems (“IVIS”) spectroscopy and tumor volume. Metastasis to the lungs was evaluated ex vivo through IVIS spectroscopy and by histopathology at the experimental endpoint. […] To evaluate the effect of metarrestin on a malignant xenograft considered closest to in vivo conditions, a patient-derived breast cancer xenotransplantation model (PDX) was used. […] Tumor size and total body weight were measured twice a week, and tumor weight was measured at experimental end-point.\nBreast cancer model: The model derived from 0.2 liter of pleural effusion from a breast cancer patient (model #373342). These cancer cells had metastasized to the lung pleura from the initial tumor detected in the breast. […] Tumor size and total body weight were measured twice a week."}}}
{"smiles": "N=c1c2c(-c3ccccc3)c(-c3ccccc3)n(Cc3ccccc3)c2ncn1[C@H]1CC[C@H](O)CC1", "note": "[metarrestin]", "values": [{"measurement": "PC3M cell growth", "setting": "PC3M cells [1]; 0.6 μM, after 24 hours of treatment", "result": "did not affect PC3M or PANC1 cell growth"}, {"measurement": "Cell growth in PC3M cancer cells", "setting": "PC3M cells [1]; 1 μM, extended time, INCUCYTE", "result": "preferentially inhibited cell growth"}, {"measurement": "UBF distribution", "setting": "[2]; 1 μM", "result": "not changed"}, {"measurement": "UBF capping", "setting": "[2]; 5 μM", "result": "did not become completely capped"}, {"measurement": "Nucleolar volume", "setting": "normal mouse hepatocytes", "result": "not changed"}, {"measurement": "Invasion of PC3M cells", "setting": "PC3M cells [3]", "result": "effectively blocked the invasion"}, {"measurement": "Concentration in primary tumors above the IC90 of 0.75 μM", "setting": "[4]", "result": "more than 10 fold"}, {"measurement": "Newly synthesized GFP-RPL29 in the cytoplasm", "setting": "GFP-RPL29", "result": "largely undetected in the cytoplasm"}, {"measurement": "Production of GFP-RPL29 and its nucleolar localization", "setting": "GFP-RPL29", "result": "appeared unchanged"}, {"measurement": "PDX growth", "setting": "[5]", "result": "effectively inhibited the PDX growth"}, {"measurement": "Tolerability (body weight and behavior)", "setting": "[5]", "result": "well-tolerated"}]}
